Source: ChEMBL document CHEMBL5046303, “Discovery of TAK-925 as a Potent, Selective, and Brain-Penetrant Orexin 2 Receptor Agonist” (ACS Med Chem Lett, 2022)
The source made the active and inactive calls. The rule behind the calls is not given here.

Columns and labels:
[1] = tested on: Mus musculus; test: Sleep modulation activity in ICR mouse assessed as increase in time spent in wakefulness at 3 mg/kg, sc administered at zeitgeber time 5 measured after 3 hrs post injection; type: functional, organism-based
[2] = biological target: T1, Orexin receptor type 2 (Homo sapiens, UniProt O43614); test: Agonist activity at human OX2R expressed in CHO-K1 cells by FLIPR calcium flux assay; type: functional, cell-based
T1 sequence (O43614 whole entry): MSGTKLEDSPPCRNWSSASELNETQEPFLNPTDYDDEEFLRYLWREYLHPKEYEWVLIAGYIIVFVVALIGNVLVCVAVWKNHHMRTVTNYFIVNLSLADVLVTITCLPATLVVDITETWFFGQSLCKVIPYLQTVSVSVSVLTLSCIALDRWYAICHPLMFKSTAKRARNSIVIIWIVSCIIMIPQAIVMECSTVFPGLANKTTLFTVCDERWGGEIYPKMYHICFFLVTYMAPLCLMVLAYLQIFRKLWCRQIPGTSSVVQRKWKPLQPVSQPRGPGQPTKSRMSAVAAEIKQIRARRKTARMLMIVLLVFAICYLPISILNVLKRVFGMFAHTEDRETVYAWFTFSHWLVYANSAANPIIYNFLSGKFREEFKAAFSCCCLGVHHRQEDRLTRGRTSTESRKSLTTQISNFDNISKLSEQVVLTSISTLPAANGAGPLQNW

With `COC(=O)N1CCC[C@H](NS(C)(=O)=O)[C@@H]1CO[C@H]1CC[C@@H](c2ccccc2)CC1` the Activity [1] was “Active”.
`CC[C@H](C)[C@H](NC(=O)CNC(=O)[C@H](C)NC(=O)[C@H](C)NC(=O)[C@H](Cc1cnc[nH]1)NC(=O)[C@H](CC(N)=O)NC(=O)CNC(=O)[C@H](C)NC(=O)CNC(=O)[C@H](Cc1cnc[nH]1)NC(=O)[C@H](CC(C)C)NC(=O)[C@H](CC(C)C)NC(=O)[C@H](CCC(=O)O)NC(=O)[C@H](Cc1ccc(O)cc1)NC(=O)[C@H](CC(C)C)NC(=O)[C@H](CCCNC(=N)N)NC(=O)[C@H](CS)NC(=O)[C@H](CO)NC(=O)[C@H](CS)NC(=O)[C@@H](NC(=O)[C@H](CCCCN)NC(=O)[C@H](CCC(N)=O)NC(=O)[C@H](CCCNC(=N)N)NC(=O)[C@H](CS)NC(=O)[C@H](CS)NC(=O)[C@H](CC(=O)O)NC(=O)[C@@H]1CCCN1C(=O)[C@H](CC(C)C)NC(=O)[C@@H]1CCCN1C(=O)[C@@H]1CCC(=O)N1)[C@@H](C)O)C(=O)N[C@@H](CC(C)C)C(=O)N[C@H](C(=O)N[C@@H](CC(C)C)C(=O)O)[C@@H](C)O` was tested, and the EC50 [2] was 0.18 nM.
